# Values of other authors as cited in PMC5745029 (Bioconjugate chemistry, 2010).
# Target: T1, human apical sodium dependent bile acid transporter (ASBT) (Homo sapiens, UniProt Q12908)
# T1 sequence (Q12908 1-348): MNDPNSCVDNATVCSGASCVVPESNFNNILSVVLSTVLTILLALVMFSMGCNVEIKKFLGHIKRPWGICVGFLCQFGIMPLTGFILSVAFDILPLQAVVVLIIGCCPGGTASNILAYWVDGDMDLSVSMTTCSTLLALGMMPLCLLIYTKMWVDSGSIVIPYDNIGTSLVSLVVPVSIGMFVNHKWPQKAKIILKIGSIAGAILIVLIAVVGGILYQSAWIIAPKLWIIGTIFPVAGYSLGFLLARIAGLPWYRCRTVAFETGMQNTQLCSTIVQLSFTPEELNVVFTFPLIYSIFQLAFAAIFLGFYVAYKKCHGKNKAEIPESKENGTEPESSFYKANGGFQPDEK
# Conditions: ASBT-MDCK monolayer
compound,measurement,value
"C[C@H](CCC(=O)O)[C@H]1CC[C@H]2[C@@H]3[C@H](O)C[C@@H]4C[C@H](O)CC[C@]4(C)[C@H]3CC[C@]12C [CDCA, chenodeoxycholate]",ASBT inhibition among native bile acids,most potent inhibitor among native bile acids
